Five compounds from patent US11166928B2, “Migraine prevention and treatment” (UNIVERSITATS-KINDERSPITAL, priority 2016, dated 2021) can be followed below.

Entries after “also recorded” stand apart in the source; their conditions may differ. Read-outs that look alike come from different tables or passages of the source.

Details of data set [1]: species or system human. As to conditions: in vivo, po. The source says: (§1) Patients diagnosed with medium-high frequency or chronic migraine according to International Headache Society Classification version 3 by an experienced neurologist were included. They were excluded if they had any significant other neurological, psychiatric or medical disorder. A minimum average of 6 migraine days/month was required during the last 3 months. Ten migraine patients (age range: 25-61 years, 1 male, attack frequency range: 6-24 migraine days/months) were included in the pilot study and randomly assigned to four conditions: 1) L-leucine (LL), 2) L-lysine (LY), 3) racemic βHB, 4) D-βHB.
(§2) L-leucine (LL) and L-lysine (LY) are the two completely ketogenic amino acids. Via various steps, unused ketogenic amino acids (i.e. leucine or lysine) are metabolised into KB. While this is commonly known, to the best of our knowledge no data exists on the extent and time frame of such ketogenic amino acids to raise blood βHB levels. For the pharmacokinetics, four migraine patients were instructed to ingest either 13 g LL or 13 g LY on an empty stomach. Blood βHB and glucose concentrations were measured using a portable point-of-care blood ketone meter (Precision Xtra®) and matching test stripes at 5 points in time: 1) Baseline (directly before consumption), 2) 0.5 h after consumption, 3) 1 h after consumption, 4) 2 h after consumption, 5) 3 h after consumption and 6) 4 h after consumption. 13 g roughly correspond to the same number of particles (mmol) as 10 g βHB. Highest average concentrations of βHB were found after 2 and 3 h (mean=0.35 mmol/I; SEM=0.05) and remained levels to remain elevated for over 4 hours (see FIG. 1).
For determining pharmacokinetics, the patients were given 10 g racemic beta-hydroxybutyrate (βHB) orally dissolved in water in 3 different conditions: (1) post cibum (after meal) (2) ante cibum (before meal) (3) 1 hour before meal. Blood βHB and glucose concentrations were measured using a portable point-of-care blood ketone meter (Precision Xtra®) and matching test stripes at 5 points in time: 1) Baseline (directly before consumption), 2) 0.5 h after consumption, 3) 1 h after consumption, 4) 2 h after consumption, 5) 3 h after consumption and 6) 4 h after consumption. […] The levels dropped to near baseline after 2 hours.
Participants were given 10 g D-beta-hydroxybutyrate (βHB) orally dissolved in water in a fasted state. Blood βHB and glucose concentrations were measured using a portable point-of-care blood ketone meter (Precision Xtra®) and matching test stripes at 5 points in time: 1) Baseline (directly before consumption), 2) 0.5 h after consumption, 3) 1 h after consumption, 4) 2 h after consumption, 5) 3 h after consumption and 6) 4 h after consumption (see FIG. 5A). As with racemic βHB, highest average concentrations of βHB were found after approximately 1 h (mean=1.94 mmol/I; SEM=0.48).

Data set [2] in a line: Blood glucose levels after a single oral dose, measured at the same time as βHB. Type of data set: in vivo, human. The following applies: 10 g single oral dose, ante cibum/fasted.
Excerpt: as §2, with “13 g roughly correspond to the same number of particles (mmol) as 10 g βHB. Highest average concentrations of βHB were found after 2 and 3 h (mean=0.35 mmol/I; SEM=0.05) and remained levels to remain elevated for over 4 hours (see FIG. 1).” left out
For determining pharmacokinetics, the patients were given 10 g racemic beta-hydroxybutyrate (βHB) orally dissolved in water in 3 different conditions: (1) post cibum (after meal) (2) ante cibum (before meal) (3) 1 hour before meal. Blood βHB and glucose concentrations were measured using a portable point-of-care blood ketone meter (Precision Xtra®) and matching test stripes at 5 points in time: 1) Baseline (directly before consumption), 2) 0.5 h after consumption, 3) 1 h after consumption, 4) 2 h after consumption, 5) 3 h after consumption and 6) 4 h after consumption. […]

The test system of data set [3] is migraine patients. The data set is described as follows: Tolerability, adverse events and palatability in the pilot experiments. As to conditions: 40 g daily, 4 weeks; 2 patients. It is filed as in vivo, human.
Data set [4] has as its system migraine patients. The data set is described as follows: Open-label pilot intervention: change in days with migraine from baseline (headache diary). It is filed as in vivo, human.
Excerpt: as §1, with “D-βHB. […]” for “D-βHB.”
(§3) Monthly migraine attack frequency was summarized over the last 3 months and the average was used for baseline comparison. Patients were either instructed to take 20 g βHB, 26 g LL or 26 g LY in two daily doses (one hour before breakfast and one hour before dinner, respectively) for the duration of 4 weeks. They were instructed to refrain from any other changes in medication or food habits for the duration of that period. The primary outcome measure was changes in days with migraines from baseline. Days with migraine were recorded using a mobile app (myheadache.ch) or a pen and paper diary and averaged across participants.
Those two chronic migraineurs (20 or 22 migraine days/month) where instructed to take 20 g racemic βHB daily for 4 weeks and after a 1 week washout period double the dose to 40 g βHB for the following 4 weeks. Migraine days were recorded for the duration of the intervention and patients were instructed to refrain from any other life-style or medication changes. The mean baseline attack frequency was 21 migraine days (SEM=1) and dropped to 11.5 days after 4 weeks of 20 g βHB daily and 6 days after 4 weeks of 40 g βHB daily (see FIG. 4 A). This preventive effect is roughly proportional to the increase in dose, with 20 g βHB leading to 46% reduction in migraine days from baseline (SEM=18.86) and 40 g βHB to a 72% reduction (SEM=12.95; see FIG. 4 B).
(§4) Monthly migraine attack frequency was summarized over the last 3 months and the average was used for baseline comparison. Patients were instructed to take 10 g racemic βHB for the duration of 8 weeks, followed by one week wash-out period and then 8 weeks of 10 g D-βHB daily. They were instructed to refrain from any other changes in medication or food habits for the duration of that period. The primary outcome measure was changes in days with migraines from baseline. Days with migraine were recorded using a mobile app (myheadache.ch) or a pen and paper diary and averaged across participants.

Data set [5] has as its system migraine patients. The data set is described as follows: Tolerability, adverse events and palatability in the pilot experiments. It is filed as in vivo, human.
Excerpt: as §3, with “take” for “take 20 g βHB,”
as §3, §4

The mark [6] stands for this setting: 10 g daily, 8 weeks, 2 patients, mean baseline 13.5 days.

Regarding `CC(O)CC(=O)O` (racemic) [racemic βHB, beta-hydroxybutyric acid], in data set [1] (human), the “Half-life of blood βHB elevation (in words)” value is on record as “very short”. For the same compound, in data set [1] (human), the “Time after which blood βHB levels dropped back to (near) baseline” value is 2 h. Also, the “Time of highest average βHB concentration” value in data set [1] (human) was “approximately 1 h”. For the same compound, the “Peak blood βHB level relative to LL” value in data set [1] is reported as “approximately double”. Also, the “Change in blood glucose levels after consumption” value in data set [2] is “substantial drop; also recorded: drop in blood glucose”. Also, the “Side-effects at increased dose” value in the data set on migraine patients [3] is “increased side-effects further in both patients; also recorded: exacerbated the side-effects”. The “Average reduction in migraine days compared to baseline” value in the data set with migraine patients [4] (10 g daily, 8 weeks, 2 high-frequency migraineurs (17 and 10 migraine days/month)) turned out to be 18.5%; in the data set on migraine patients [4] (20 g daily in two doses, 4 weeks, 4 medium-high frequency migraineurs (6-22 migraine days/month)), 51%. Besides, the “Mean migraine days after intervention” value in the data set on migraine patients [4] (setting [6]) was found to be 11 days; in the data set with migraine patients [4] (20 g daily, 4 weeks, 2 chronic migraineurs, mean baseline 21 migraine days) it was 11.5 days; in the data set on migraine patients [4] (20 g daily, 4 weeks, mean baseline 16.25 days) it was 8 days; with migraine patients [4] (40 g daily, 4 weeks, 2 chronic migraineurs, mean baseline 21 migraine days), 6 days. In addition, in the data set on migraine patients [4] (20 g daily, 4 weeks, 2 chronic migraineurs (20 or 22 migraine days/month)), the “Reduction in migraine days from baseline” value was determined as 46%. In addition, the “Range of reduction in migraine days compared to baseline” value with migraine patients [4] (20 g daily, 4 weeks, range across patients) is reported as 25-80%. In addition, the “Adverse events / tolerability” value in the data set with migraine patients [5] (20 g daily, 4 weeks, 5 patients) is “severe nausea and vertigo; also recorded: gastrointestinal upset; also recorded: problematic”.
For the compound `CC(O)CC(=O)O` (racemic) [βHB, beta-hydroxybutyric acid], the “Median migraine days after the intervention” value in the data set on migraine patients [4] (20 g daily, 4 weeks, median at baseline 18) turned out to be 7 migraine days. Also, the “Tolerability (in words)” value in the data set on migraine patients [5] (in comparison to the ketogenic amino acids, dose and isomer not stated) is reported as “well tolerated”.
In the case of `CC(O)CC(=O)O` [D-βHB, D beta-hydroxybutyric (βHB) acid], the “Time of highest average βHB concentration” value in data set [1] was “approximately 1 h”. Further, in data set [2], the “Change in blood glucose levels after consumption” value is “completely stable; also recorded: does not seem to lead to a potentially unwanted drop in blood glucose levels; also recorded: no concomitant drop in blood glucose”. In addition, the “Mean migraine days after intervention” value in the data set with migraine patients [4] (setting [6]) came to 4.25 days. For the same compound, the Side-effects / tolerability result in the data set with migraine patients [5] (10 g daily, 8 weeks (2 months), 2 patients) is recorded as “No side-effects; also recorded: much better tolerated; also recorded: fewer gastrointestinal side-effects”.
Turning to `CC(C)C[C@H](N)C(=O)O` [LL, L-leucine, reference compound], in data set [1] (human), the “Time of highest average βHB concentration” value was 2 and 3 h. Moreover, in the data set with migraine patients [5] (26 g daily (13 g twice a day)), the “Adverse events / tolerability” value is “diarrhoea or nausea”.
`NCCCC[C@H](N)C(=O)O` [LY, L-lysine, reference compound]: in the data set on migraine patients [5] (26 g daily (13 g twice a day)), the “Adverse events / tolerability” value was “diarrhoea or nausea”.
